# Tests used:
# [1] = system: P. falciparum 3D7 trophozoites; experiment: Metabolomic fingerprint profiling LC-MS; assay type: cell-based, Plasmodium falciparum; set-up: UDP-D-glucose / ADP-D-glucose: unit not given here; conditions: for Acetyllysine / N-acetyl-L-ornithine / N-carbamoyl-L-aspartate / NADPH / dAMP / dCMP / dTDP / dTMP / dTTP / dihydroorotate / orotate / DLH / DLS/SDL/SID / PD / PEE / PVNF / 3-phosphoglycerate / ADP-D-glucose / ATP / CDP / D-sedoheptulose-1/7-phosphate / FAD / GMP / NAD+ / NADP+ / Octoluse Bisphosphate / Pyroglutamic acid / UDP-D-glucose / UDP-D-glucuronate / UDP-N-acetyl-glucosamine / UDP / UMP / UTP / a-ketoglutarate / citrate/isocitrate / cytidine / dATP / dGMP/AMP / fumarate / glucose-1/6-phosphate / glycerate / guanine / guanosine / hypoxanthine / indole / inosine / nicotinate / ornithine / phosphoenolpyruvate / pyruvate / ribose-phosphate / sarcosine/alanine / sn-glycerol-3-phosphate / succinate/methylmalonic acid / uridine / xanthosine: S2 Table Metabolomics; for Acetyllysine: metabolite Acetyllysine; for N-acetyl-L-ornithine: metabolite N-acetyl-L-ornithine; for N-carbamoyl-L-aspartate: metabolite N-carbamoyl-L-aspartate; for NADPH: metabolite NADPH; for dAMP: metabolite dAMP; for dCMP: metabolite dCMP; for dTDP: metabolite dTDP; for dTMP: metabolite dTMP; for dTTP: metabolite dTTP; for dihydroorotate: metabolite dihydroorotate; for orotate: metabolite orotate; for DLH: peptide DLH; for DLS/SDL/SID: peptide DLS/SDL/SID; for PD: peptide PD; for PEE: peptide PEE; for PVNF: peptide PVNF; for 3-phosphoglycerate: metabolite 3-phosphoglycerate; for ADP-D-glucose: metabolite ADP-D-glucose; for ATP: metabolite ATP; for CDP: metabolite CDP; for CDP / D-sedoheptulose-1/7-phosphate / GMP / Octoluse Bisphosphate / UDP / UMP / UTP / citrate/isocitrate / dGMP/AMP / fumarate / glucose-1/6-phosphate / glycerate / guanine / guanosine / inosine / pyruvate / sarcosine/alanine / succinate/methylmalonic acid / uridine / xanthosine: change in metabolite level after compound treatment; for D-sedoheptulose-1/7-phosphate: metabolite D-sedoheptulose-1/7-phosphate; for FAD: metabolite FAD; for GMP: metabolite GMP; for NAD+: metabolite NAD+; for NADP+: metabolite NADP+; for Octoluse Bisphosphate: metabolite Octoluse Bisphosphate; for Pyroglutamic acid: metabolite Pyroglutamic acid; for UDP-D-glucose: metabolite UDP-D-glucose; for UDP-D-glucuronate: metabolite UDP-D-glucuronate; for UDP-N-acetyl-glucosamine: metabolite UDP-N-acetyl-glucosamine; for UDP: metabolite UDP; for UMP: metabolite UMP; for UTP: metabolite UTP; for a-ketoglutarate: metabolite a-ketoglutarate; for citrate/isocitrate: metabolite citrate/isocitrate; for cytidine: metabolite cytidine; for dATP: metabolite dATP; for dGMP/AMP: metabolite dGMP/AMP; for fumarate: metabolite fumarate; for glucose-1/6-phosphate: metabolite glucose-1/6-phosphate; for glycerate: metabolite glycerate; for guanine: metabolite guanine; for guanosine: metabolite guanosine; for hypoxanthine: metabolite hypoxanthine; for indole: metabolite indole; for inosine: metabolite inosine; for 2_3-Diphosphoglyceric acid / 4-phosphopantothenate / 6-phospho-D-gluconate / FMN / IMP / Pyrophosphate / Sedoheptoluse bisphosphate / cyclic-AMP / glutathione disulfide / lactate / myo-inositol: metabolite level change after treatment; for nicotinate: metabolite nicotinate; for ornithine: metabolite ornithine; for phosphoenolpyruvate: metabolite phosphoenolpyruvate; for pyruvate: metabolite pyruvate; for ribose-phosphate: metabolite ribose-phosphate; for sarcosine/alanine: metabolite sarcosine/alanine; for sn-glycerol-3-phosphate: metabolite sn-glycerol-3-phosphate; for succinate/methylmalonic acid: metabolite succinate/methylmalonic acid; for uridine: metabolite uridine; for xanthosine: metabolite xanthosine
# P. falciparum = experiment: EC50 listed in S2 Table Metabolomics (used to set the concentration tested); assay type: cell-based; conditions: Plasmodium falciparum; EC50 used for Factor_XEC50 in metabolomics; read-out: EC50_nM
compound,measurement,setting,value
CCOc1ccc(-c2nonc2NC(=O)c2cccc(C)c2)cc1OCC [MMV665805],Acetyllysine,[1],-2.655
same,N-acetyl-L-ornithine,[1],-3.165
same,N-carbamoyl-L-aspartate,[1],-1.056
same,NADPH,[1],0.0179
same,dAMP,[1],-0.2659
same,dCMP,[1],-0.0001746
same,dTDP,[1],-0.4156
same,dTMP,[1],0.168
same,dTTP,[1],-1.808
same,dihydroorotate,[1],-0.8461
same,orotate,[1],-0.316
same,DLH,[1],-3.43
same,DLS/SDL/SID,[1],-2.376
same,PD,[1],-4.256
same,PEE,[1],-1.272
same,PVNF,[1],-3.291
same,3-phosphoglycerate,[1],-0.4238
same,ADP-D-glucose,[1],-0.07023
same,ATP,[1],-0.872
same,CDP,[1],0.2433
same,D-sedoheptulose-1/7-phosphate,[1],0.2738
same,FAD,[1],-1.216
same,GMP,[1],-1.407
same,NAD+,[1],-0.2783
same,NADP+,[1],0.09325
same,Octoluse Bisphosphate,[1],-2.628
same,Pyroglutamic acid,[1],0.2488
same,UDP-D-glucose,[1],-0.08929
same,UDP-D-glucuronate,[1],0.1004
same,UDP-N-acetyl-glucosamine,[1],-0.1333
same,UDP,[1],0.1418
same,UMP,[1],-2.433
same,UTP,[1],-1.276
same,a-ketoglutarate,[1],0.06268
same,citrate/isocitrate,[1],-0.7764
same,cytidine,[1],-0.5056
same,dATP,[1],-1.548
same,dGMP/AMP,[1],0.3312
same,fumarate,[1],-2.16
same,glucose-1/6-phosphate,[1],-1.496
same,glycerate,[1],-1.128
same,guanine,[1],-1.378
same,guanosine,[1],-1.192
same,hypoxanthine,[1],0.2303
same,indole,[1],0.06669
same,inosine,[1],-2.254
same,2_3-Diphosphoglyceric acid,[1],-1.518
same,4-phosphopantothenate,[1],-1.982
same,6-phospho-D-gluconate,[1],-1.236
same,FMN,[1],-1.528
same,IMP,[1],-1.238
same,Pyrophosphate,[1],-1.477
same,Sedoheptoluse bisphosphate,[1],-1.741
same,cyclic-AMP,[1],-2.892
same,glutathione disulfide,[1],-1.641
same,lactate,[1],-4.838
same,myo-inositol,[1],-5.977
same,nicotinate,[1],-0.4798
same,ornithine,[1],-0.1601
same,phosphoenolpyruvate,[1],0.09842
same,pyruvate,[1],-2.577
same,ribose-phosphate,[1],-0.0001746
same,sarcosine/alanine,[1],-2.25
same,sn-glycerol-3-phosphate,[1],-0.6654
same,succinate/methylmalonic acid,[1],-1.698
same,uridine,[1],-2.032
same,xanthosine,[1],0.4761
same,EC50,P. falciparum,117 nM
COc1ccc2c(=O)cc(C(Cl)(Cl)Cl)oc2c1 [MMV665820],Acetyllysine,[1],-2.345
same,N-acetyl-L-ornithine,[1],-3.277
same,N-carbamoyl-L-aspartate,[1],-3.842
same,NADPH,[1],-0.2986
same,dAMP,[1],-0.8398
same,dCMP,[1],-0.0001746
same,dTDP,[1],-1.2684
same,dTMP,[1],-0.5586
same,dTTP,[1],-2.5615
same,dihydroorotate,[1],-2.921
same,orotate,[1],-2.382
same,DLH,[1],-2.464
same,DLS/SDL/SID,[1],-1.694
same,PD,[1],-4.28
same,PEE,[1],-1.0444
same,PVNF,[1],-2.464
same,3-phosphoglycerate,[1],-2.392
same,ADP-D-glucose,[1],-0.3227
same,ATP,[1],-1.288
same,CDP,[1],-0.9038
same,D-sedoheptulose-1/7-phosphate,[1],0.5405
same,FAD,[1],-1.407
same,GMP,[1],-1.717
same,NAD+,[1],-0.3778
same,NADP+,[1],-0.008784
same,Octoluse Bisphosphate,[1],-4.199
same,Pyroglutamic acid,[1],0.4738
same,UDP-D-glucose,[1],-0.2217
same,UDP-D-glucuronate,[1],-0.02834
same,UDP-N-acetyl-glucosamine,[1],-0.2815
same,UDP,[1],-0.477
same,UMP,[1],-2.629
same,UTP,[1],-1.869
same,a-ketoglutarate,[1],0.2276
same,citrate/isocitrate,[1],-0.6427
same,cytidine,[1],-0.5777
same,dATP,[1],-2.2274
same,dGMP/AMP,[1],0.08346
same,fumarate,[1],-2.544
same,glucose-1/6-phosphate,[1],-2.012
same,glycerate,[1],-1.622
same,guanine,[1],-1.809
same,guanosine,[1],-1.332
same,hypoxanthine,[1],0.4621
same,indole,[1],0.006213
same,inosine,[1],-2.706
same,2_3-Diphosphoglyceric acid,[1],-2.758
same,4-phosphopantothenate,[1],-2.584
same,6-phospho-D-gluconate,[1],-2.402
same,FMN,[1],-1.9
same,IMP,[1],-1.4619
same,Pyrophosphate,[1],-2.687
same,Sedoheptoluse bisphosphate,[1],-3.03
same,cyclic-AMP,[1],-3.2218
same,glutathione disulfide,[1],-1.807
same,lactate,[1],-6.313
same,myo-inositol,[1],-0.0001746
same,nicotinate,[1],-0.2855
same,ornithine,[1],0.1501
same,phosphoenolpyruvate,[1],-1.494
same,pyruvate,[1],-2.492
same,ribose-phosphate,[1],-0.0001746
same,sarcosine/alanine,[1],-2.81
same,sn-glycerol-3-phosphate,[1],-1.932
same,succinate/methylmalonic acid,[1],-1.8645
same,uridine,[1],-1.942
same,xanthosine,[1],-0.05367
same,EC50,P. falciparum,520 nM
